Reference: PubChem BioAssay (NCI)
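How tested: cells in 96-well plates exposed to compound for 48 hours at five concentrations. TGI: concentration producing complete growth inhibition.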

How the values were obtained:
Assay in all cases: inhibition of tumour cell growth, NCI panel, 48 h
OVCAR-8 ovarian = tested on: OVCAR-8 ovarian
RXF 393 renal = tested on: RXF 393 renal
ACHN renal = tested on: ACHN renal
XF 498 CNS = tested on: XF 498 CNS
M14 melanoma = tested on: M14 melanoma
KM12 colon = tested on: KM12 colon
NCI-H23 lung = tested on: NCI-H23 lung
786-0 renal = tested on: 786-0 renal
OVCAR-4 ovarian = tested on: OVCAR-4 ovarian
HOP-62 NSCLC = tested on: HOP-62 NSCLC
SF-268 CNS = tested on: SF-268 CNS
HCC-2998 colon = tested on: HCC-2998 colon
MOLT-4 leukemia = tested on: MOLT-4 leukemia
IGROV1 ovarian = tested on: IGROV1 ovarian
HCT-15 colon = tested on: HCT-15 colon
SF-295 CNS = tested on: SF-295 CNS
TK-10 renal = tested on: TK-10 renal
NCI-H460 lung = tested on: NCI-H460 lung
SK-MEL-2 melanoma = tested on: SK-MEL-2 melanoma
HCT-116 colon = tested on: HCT-116 colon
DMS 114 small cell lung = tested on: DMS 114 small cell lung
SK-MEL-28 melanoma = tested on: SK-MEL-28 melanoma
LXFL 529 NSCLC = tested on: LXFL 529 NSCLC
K-562 leukemia = tested on: K-562 leukemia
SNB-78 CNS = tested on: SNB-78 CNS
U251 CNS = tested on: U251 CNS
A549 NSCLC = tested on: A549 NSCLC
M19-MEL melanoma = tested on: M19-MEL melanoma
EKVX NSCLC = tested on: EKVX NSCLC
HOP-18 NSCLC = tested on: HOP-18 NSCLC
LOX IMVI melanoma = tested on: LOX IMVI melanoma
NCI-H226 lung = tested on: NCI-H226 lung
NCI-H522 lung = tested on: NCI-H522 lung
KM20L2 colon = tested on: KM20L2 colon
OVCAR-5 ovarian = tested on: OVCAR-5 ovarian
MALME-3M melanoma = tested on: MALME-3M melanoma
DMS 273 small cell lung = tested on: DMS 273 small cell lung
CCRF-CEM leukemia = tested on: CCRF-CEM leukemia
SW-620 colon = tested on: SW-620 colon
UACC-257 melanoma = tested on: UACC-257 melanoma
UACC-62 melanoma = tested on: UACC-62 melanoma
SK-OV-3 ovarian = tested on: SK-OV-3 ovarian
COLO 205 colon = tested on: COLO 205 colon
SF-539 CNS = tested on: SF-539 CNS
CAKI-1 renal = tested on: CAKI-1 renal
SNB-19 CNS = tested on: SNB-19 CNS
SK-MEL-5 melanoma = tested on: SK-MEL-5 melanoma
A498 renal = tested on: A498 renal
DLD-1 colon = tested on: DLD-1 colon
RXF-631 renal = tested on: RXF-631 renal
OVCAR-3 ovarian = tested on: OVCAR-3 ovarian
SNB-75 CNS = tested on: SNB-75 CNS
HT29 colon = tested on: HT29 colon
SN12C renal = tested on: SN12C renal
SR leukemia = tested on: SR leukemia
HOP-92 NSCLC = tested on: HOP-92 NSCLC
HL-60(TB) leukemia = tested on: HL-60(TB) leukemia
RPMI-8226 leukemia = tested on: RPMI-8226 leukemia
UO-31 renal = tested on: UO-31 renal

Compound: O=C1CSc2cc([N+](=O)[O-])ccc2N1
- TGI (OVCAR-8 ovarian): > 100 µM
- TGI (RXF 393 renal): > 100 µM
- TGI (ACHN renal): > 100 µM
- TGI (XF 498 CNS): > 100 µM
- TGI (M14 melanoma): > 100 µM
- TGI (KM12 colon): > 100 µM
- TGI (NCI-H23 lung): > 100 µM
- TGI (786-0 renal): > 100 µM
- TGI (OVCAR-4 ovarian): > 100 µM
- TGI (HOP-62 NSCLC): > 100 µM
- TGI (SF-268 CNS): > 100 µM
- TGI (HCC-2998 colon): > 100 µM
- TGI (MOLT-4 leukemia): > 100 µM
- TGI (IGROV1 ovarian): > 100 µM
- TGI (HCT-15 colon): > 100 µM
- TGI (SF-295 CNS): > 100 µM
- TGI (TK-10 renal): > 100 µM
- TGI (NCI-H460 lung): > 100 µM
- TGI (SK-MEL-2 melanoma): > 100 µM
- TGI (HCT-116 colon): > 100 µM
- TGI (DMS 114 small cell lung): > 100 µM
- TGI (SK-MEL-28 melanoma): > 100 µM
- TGI (LXFL 529 NSCLC): > 100 µM
- TGI (K-562 leukemia): > 100 µM
- TGI (SNB-78 CNS): > 100 µM
- TGI (U251 CNS): > 100 µM
- TGI (A549 NSCLC): > 100 µM
- TGI (M19-MEL melanoma): > 100 µM
- TGI (EKVX NSCLC): > 100 µM
- TGI (HOP-18 NSCLC): > 100 µM
- TGI (LOX IMVI melanoma): > 100 µM
- TGI (NCI-H226 lung): > 100 µM
- TGI (NCI-H522 lung): > 100 µM
- TGI (KM20L2 colon): > 100 µM
- TGI (OVCAR-5 ovarian): > 100 µM
- TGI (MALME-3M melanoma): > 100 µM
- TGI (DMS 273 small cell lung): > 100 µM
- TGI (CCRF-CEM leukemia): > 100 µM
- TGI (SW-620 colon): > 100 µM
- TGI (UACC-257 melanoma): > 100 µM
- TGI (UACC-62 melanoma): > 100 µM
- TGI (SK-OV-3 ovarian): > 100 µM
- TGI (COLO 205 colon): > 100 µM
- TGI (SF-539 CNS): > 100 µM
- TGI (CAKI-1 renal): > 100 µM
- TGI (SNB-19 CNS): > 100 µM
- TGI (SK-MEL-5 melanoma): > 100 µM
- TGI (A498 renal): > 100 µM
- TGI (DLD-1 colon): > 100 µM
- TGI (RXF-631 renal): > 100 µM
- TGI (OVCAR-3 ovarian): > 100 µM
- TGI (SNB-75 CNS): > 100 µM
- TGI (HT29 colon): > 100 µM
- TGI (SN12C renal): > 100 µM

Compound: CCc1cccc(C)c1NC(=O)CC1C(=O)Nc2ccccc2S1(=O)=O (stereo not drawn)
- TGI (OVCAR-8 ovarian): 54.1 µM
- TGI (RXF 393 renal): 40.4 µM
- TGI (ACHN renal): 47.4 µM
- TGI (SR leukemia): 23.8 µM
- TGI (HOP-92 NSCLC): 31.8 µM
- TGI (HL-60(TB) leukemia): 40.2 µM
- TGI (XF 498 CNS): 26.2 µM
- TGI (M14 melanoma): 72.1 µM
- TGI (NCI-H23 lung): 41.1 µM
- TGI (786-0 renal): 31.5 µM
- TGI (OVCAR-4 ovarian): 29.6 µM
- TGI (SF-268 CNS): 39.4 µM
- TGI (HCC-2998 colon): 30.4 µM
- TGI (MOLT-4 leukemia): 36 µM
- TGI (IGROV1 ovarian): 35.2 µM
- TGI (HCT-15 colon): 33.8 µM
- TGI (SF-295 CNS): 82.1 µM
- TGI (RPMI-8226 leukemia): 40.4 µM
- TGI (TK-10 renal): 59.4 µM
- TGI (NCI-H460 lung): 27.9 µM
- TGI (SK-MEL-2 melanoma): 53.5 µM
- TGI (HCT-116 colon): 35.4 µM
- TGI (DMS 114 small cell lung): 34.1 µM
- TGI (SK-MEL-28 melanoma): 48.1 µM
- TGI (LXFL 529 NSCLC): 37 µM
- TGI (K-562 leukemia): 14.7 µM
- TGI (SNB-78 CNS): 53.7 µM
- TGI (U251 CNS): 32.5 µM
- TGI (A549 NSCLC): 35.2 µM
- TGI (M19-MEL melanoma): 38.9 µM
- TGI (EKVX NSCLC): 41.9 µM
- TGI (LOX IMVI melanoma): 27.3 µM
- TGI (NCI-H226 lung): > 100 µM
- TGI (NCI-H522 lung): 32.5 µM
- TGI (KM20L2 colon): 34.2 µM
- TGI (OVCAR-5 ovarian): 56.4 µM
- TGI (MALME-3M melanoma): 33 µM
- TGI (DMS 273 small cell lung): 25 µM
- TGI (CCRF-CEM leukemia): 41.6 µM
- TGI (SW-620 colon): 29.3 µM
- TGI (UACC-257 melanoma): 82.7 µM
- TGI (UO-31 renal): 27.7 µM
- TGI (UACC-62 melanoma): 41.1 µM
- TGI (SF-539 CNS): 24.6 µM
- TGI (CAKI-1 renal): 31.2 µM
- TGI (SNB-19 CNS): 75.5 µM
- TGI (SK-MEL-5 melanoma): 44.4 µM
- TGI (A498 renal): 58.3 µM
- TGI (DLD-1 colon): 40.4 µM
- TGI (RXF-631 renal): 33 µM
- TGI (OVCAR-3 ovarian): 33.5 µM
- TGI (SNB-75 CNS): 31.2 µM
- TGI (HT29 colon): 36.4 µM
- TGI (SN12C renal): 63.6 µM
